The record followed here is patent US12077537B2 (Gilead Sciences, Inc., priority 2020, dated 2024).

What is called EC50 is the concentration that produces a half-maximal response. Lower therefore signals greater potency.

This experiment relates to HIV-IIIb. Description: Antiviral assay in MT4 cells. To be noted: Human immunodeficiency virus 1, MT4, 120 h; MT-4 cells mixed with HIV-IIIb at m.o.i. 0.003; 5 days at 37° C.; CellTiter-Glo luminescence; 50% decrease in signal, a measure of HIV-1 replication. Format: cell-based. Summed up: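 MT-4 cells were infected with HIV-IIIb at m.o.i. 0.003 for 1 hour, then added to 3-fold serially diluted compound (10 concentrations, quadruplicate) in medium with 10% FBS. After 5 days at 37° C, cell viability was read by CellTiter-Glo chemiluminescence.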
Compound `O=C(Cn1nc(C(F)(F)F)c2c1C(F)(F)[C@@H]1C[C@H]21)N[C@@H](Cc1cc(F)cc(F)c1)c1nc2nc(N3CCN(c4ccncc4)CC3)sc2cc1-c1ccc2c(c1)C(=O)NC21CC1` [Compound 42, 2-((3bS,4aR)-5,5-difluoro-3-(trifluoromethyl)-3b,4,4a,5-tetrahydro-1H-cyclopropa[3,4]cyclopenta[1,2-c]pyrazol-1-yl)-N—((S)-2-(3,5-difluorophenyl)-1-(6-(3′-oxospiro[cyclopropane-1,1′-isoindolin]-5′-yl)-2-(4-(pyridin-4-yl)piperazin-1-yl)thiazolo[4,5-b]pyridin-5-yl)ethyl)acetamide] showed a 50% effective concentration (EC50) of 87.2 nM. Turning to `NC(=O)c1cc(-c2cc3sc(N4CCN(C5COC5)CC4)nc3nc2[C@H](Cc2cc(F)cc(F)c2)NC(=O)Cn2nc(C(F)(F)F)c3c2C(F)(F)[C@@H]2C[C@H]32)ccc1F` [Compound 24, 5-(5-((S)-1-(2-((3bS,4aR)-5,5-difluoro-3-(trifluoromethyl)-3b,4,4a,5-tetrahydro-1H-cyclopropa[3,4]cyclopenta[1,2-c]pyrazol-1-yl)acetamido)-2-(3,5-difluorophenyl)ethyl)-2-(4-(oxetan-3-yl)piperazin-1-yl)thiazolo[4,5-b]pyridin-6-yl)-2-fluorobenzamide], it took 32.7 nM to reach a half-maximal effect (EC50).

In turn, `Cn1nc(NS(C)(=O)=O)c2cccc(-c3cc4[nH]c(-c5ccccc5)nc4nc3[C@H](Cc3cc(F)cc(F)c3)NC(=O)Cn3nc(C(F)(F)F)c4c3C(F)(F)[C@@H]3C[C@H]43)c21` [Example 94, 2-((3bS,4aR)-5,5-difluoro-3-(trifluoromethyl)-3b,4,4a,5-tetrahydro-1H-cyclopropa[3,4]cyclopenta[1,2-c]pyrazol-1-yl)-N—((S)-2-(3,5-difluorophenyl)-1-(6-(1-methyl-3-(methylsulfonamido)-1H-indazol-7-yl)-2-phenyl-1H-imidazo[4,5-b]pyridin-5-yl)ethyl)acetamide] yielded a concentration for a half-maximal effect (EC50) of 81.2 nM.

Compound `Cn1nc(NS(C)(=O)=O)c2cccc(-c3cc4sc(N5CCC6(CC5)CNC(=O)O6)nc4nc3[C@H](Cc3cc(F)cc(F)c3)NC(=O)Cn3nc(C(F)(F)F)c4c3C(F)(F)[C@@H]3C[C@H]43)c21` [Example 80, 2-((3bS,4aR)-5,5-difluoro-3-(trifluoromethyl)-3b,4,4a,5-tetrahydro-1H-cyclopropa[3,4]cyclopenta[1,2-c]pyrazol-1-yl)-N—((S)-2-(3,5-difluorophenyl)-1-(6-(1-methyl-3-(methylsulfonamido)-1H-indazol-7-yl)-2-(2-oxo-1-oxa-3,8-diazaspiro[4.5]decan-8-yl)thiazolo[4,5-b]pyridin-5-yl)ethyl)acetamide] yielded a 50% effective concentration (EC50) of 24.8 nM.

In turn, `CC1CN(c2nc3nc([C@H](Cc4cc(F)cc(F)c4)NC(=O)Cn4nc(C(F)(F)F)c5c4C(F)(F)[C@@H]4C[C@H]54)c(-c4ccc(F)c(C(N)=O)c4)cc3s2)CC(C)N1C1COC1` (stereo partly drawn) [Compound 30, 5-(5-((S)-1-(2-((3bS,4aR)-5,5-difluoro-3-(trifluoromethyl)-3b,4,4a,5-tetrahydro-1H-cyclopropa[3,4]cyclopenta[1,2-c]pyrazol-1-yl)acetamido)-2-(3,5-difluorophenyl)ethyl)-2-(3,5-dimethyl-4-(oxetan-3-yl)piperazin-1-yl)thiazolo[4,5-b]pyridin-6-yl)-2-fluorobenzamide] returned a 50% effective concentration (EC50) of 47.3 nM. Then `N#Cc1cc(-c2cc3scnc3nc2[C@H](Cc2cc(F)cc(F)c2)NC(=O)Cn2nc(C(F)F)c3c2C(F)(F)CCC3(F)F)ccc1F` [Compound 15E, (S)—N-(1-(6-(3-cyano-4-fluorophenyl)thiazolo[4,5-b]pyridin-5-yl)-2-(3,5-difluorophenyl)ethyl)-2-(3-(difluoromethyl)-4,4,7,7-tetrafluoro-4,5,6,7-tetrahydro-1H-indazol-1-yl)acetamide], with 2640 nM. Then `Cn1nc(NS(C)(=O)=O)c2cccc(-c3cc4sc(N5CCN(C(=O)C(C)(C)N)CC5)nc4nc3[C@H](Cc3cc(F)cc(F)c3)NC(=O)Cn3nc(C(F)(F)F)c4c3C(F)(F)[C@@H]3C[C@H]43)c21` [Example 83, N—((S)-1-(2-(4-(2-amino-2-methylpropanoyl)piperazin-1-yl)-6-(1-methyl-3-(methylsulfonamido)-1H-indazol-7-yl)thiazolo[4,5-b]pyridin-5-yl)-2-(3,5-difluorophenyl)ethyl)-2-((3bS,4aR)-5,5-difluoro-3-(trifluoromethyl)-3b,4,4a,5-tetrahydro-1H-cyclopropa[3,4]cyclopenta[1,2-c]pyrazol-1-yl)acetamide], with 52.3 nM. Compound `Cc1c(-c2cc3[nH]c(-c4ccccc4)cc3nc2[C@H](Cc2cc(F)cc(F)c2)NC(=O)Cn2nc(C(F)(F)F)c3c2C(F)(F)[C@@H]2C[C@H]32)ccc2n[nH]c(=O)n12` [Example 120, 2-((3bS,4aR)-5,5-difluoro-3-(trifluoromethyl)-3b,4,4a,5-tetrahydro-1H-cyclopropa[3,4]cyclopenta[1,2-c]pyrazol-1-yl)-N—((S)-2-(3,5-difluorophenyl)-1-(6-(5-methyl-3-oxo-2,3-dihydro-[1,2,4]triazolo[4,3-a]pyridin-6-yl)-2-phenyl-1H-pyrrolo[3,2-b]pyridin-5-yl)ethyl)acetamide] yielded an EC50 of 294 nM. Then `CC1(O)CN(c2nc3cc(-c4ccc(F)c(C(N)=O)c4)c([C@H](Cc4cc(F)cc(F)c4)NC(=O)Cn4nc(C(F)(F)F)c5c4C(F)(F)[C@@H]4C[C@H]54)nc3o2)C1` [Example 111, 5-(5-((S)-1-(2-((3bS,4aR)-5,5-difluoro-3-(trifluoromethyl)-3b,4,4a,5-tetrahydro-1H-cyclopropa[3,4]cyclopenta[1,2-c]pyrazol-1-yl)acetamido)-2-(3,5-difluorophenyl)ethyl)-2-(3-hydroxy-3-methylazetidin-1-yl)oxazolo[5,4-b]pyridin-6-yl)-2-fluorobenzamide], with 156 nM; and `Cn1nc(NS(C)(=O)=O)c2c(Cl)ccc(-c3cc4c(nc3[C@H](Cc3cc(F)cc(F)c3)NC(=O)Cn3nc(C(F)F)c5c3C(F)(F)[C@@H]3C[C@H]53)CCC(=O)N4)c21` [Compound 136, N—((S)-1-(3-(4-chloro-1-methyl-3-(methylsulfonamido)-1H-indazol-7-yl)-6-oxo-5,6,7,8-tetrahydro-1,5-naphthyridin-2-yl)-2-(3,5-difluorophenyl)ethyl)-2-((3bS,4aR)-3-(difluoromethyl)-5,5-difluoro-3b,4,4a,5-tetrahydro-1H-cyclopropa[3,4]cyclopenta[1,2-c]pyrazol-1-yl)acetamide], with 4.3 nM. The compound `NC(=O)c1cc(-c2cc3sc(N4CCN(c5ccc(-c6ncc[nH]6)cc5)CC4)nc3nc2[C@H](Cc2cc(F)cc(F)c2)NC(=O)Cn2nc(C(F)(F)F)c3c2C(F)(F)[C@@H]2C[C@H]32)ccc1F` [Compound 28-1, 5-(2-(4-(4-(1H-imidazol-2-yl)phenyl)piperazin-1-yl)-5-((S)-1-(2-((3bS,4aR)-5,5-difluoro-3-(trifluoromethyl)-3b,4,4a,5-tetrahydro-1H-cyclopropa[3,4]cyclopenta[1,2-c]pyrazol-1-yl)acetamido)-2-(3,5-difluorophenyl)ethyl)thiazolo[4,5-b]pyridin-6-yl)-2-fluorobenzamide] displayed a concentration giving a half-maximal response (EC50) of 300 nM. Compared with the last compound, the EC50 is about 70-fold higher. Compound `CC(C)(O)CNc1nc2nc([C@H](Cc3cc(F)cc(F)c3)NC(=O)Cn3nc(C(F)F)c4c3C(F)(F)CCC4(F)F)c(-c3ccc(F)c(C(N)=O)c3)cc2s1` [Compound 6, (S)-5-(5-(1-(2-(3-(difluoromethyl)-4,4,7,7-tetrafluoro-4,5,6,7-tetrahydro-1H-indazol-1-yl)acetamido)-2-(3,5-difluorophenyl)ethyl)-2-((2-hydroxy-2-methylpropyl)amino)thiazolo[4,5-b]pyridin-6-yl)-2-fluorobenzamide] yielded a concentration giving a half-maximal response (EC50) of 98.6 nM. Then `Cn1nc(N)c2cccc(-c3cc4sc(NCC(C)(C)O)nc4nc3[C@H](Cc3cc(F)cc(F)c3)NC(=O)Cn3nc(C(F)F)c4c3C(F)(F)[C@@H]3C[C@H]43)c21` [Compound 57, N—((S)-1-(6-(3-amino-1-methyl-1H-indazol-7-yl)-2-((2-hydroxy-2-methylpropyl)amino)thiazolo[4,5-b]pyridin-5-yl)-2-(3,5-difluorophenyl)ethyl)-2-((3bS,4aR)-3-(difluoromethyl)-5,5-difluoro-3b,4,4a,5-tetrahydro-1H-cyclopropa[3,4]cyclopenta[1,2-c]pyrazol-1-yl)acetamide], with 13 nM.

On to `O=C(Cn1nc(C(F)F)c2c1C(F)(F)CCC2(F)F)N[C@H](Cc1cc(F)cc(F)c1)c1nc2ncsc2cc1-c1ccc(F)cc1` [Compound 17, (R)-2-(3-(difluoromethyl)-4,4,7,7-tetrafluoro-4,5,6,7-tetrahydro-1H-indazol-1-yl)-N-(2-(3,5-difluorophenyl)-1-(6-(4-fluorophenyl)thiazolo[4,5-b]pyridin-5-yl)ethyl)acetamide], for which the midpoint of the response, the EC50, lay at 7990 nM. For the compound `C[Si](C)(C)CCn1ccnc1-c1ccc(N2CCN(c3nc4nc([C@H](Cc5cc(F)cc(F)c5)NC(=O)Cn5nc(C(F)(F)F)c6c5C(F)(F)[C@@H]5C[C@H]65)c(-c5ccc(F)c(C(N)=O)c5)cc4s3)CC2)cc1` [Compound 28-2, 5-(5-((S)-1-(2-((3bS,4aR)-5,5-difluoro-3-(trifluoromethyl)-3b,4,4a,5-tetrahydro-1H-cyclopropa[3,4]cyclopenta[1,2-c]pyrazol-1-yl)acetamido)-2-(3,5-difluorophenyl)ethyl)-2-(4-(4-(1-(2-(trimethylsilyl)ethyl)-1H-imidazol-2-yl)phenyl)piperazin-1-yl)thiazolo[4,5-b]pyridin-6-yl)-2-fluorobenzamide], the 50% effective concentration (EC50) is at least 53200 nM.
